According to US12691100B2, “NMT inhibitor treatment of a senescence-associated disease or disorder of the liver” (Imperial College Innovations Limited, priority 2020, dated 2026):

Experiments:
IMR90 ER:RAS cells [1] = test: Intracellular levels of SASP cytokines IL-6 and IL-8 by immunofluorescence; format: cell-based, human; conditions: 4OHT-induced senescent cells; 7 days after addition of the drugs; FIGS. 12A-C
Method: Immunofluorescence staining was carried out by first fixing wells of 96 well plate at desired timepoint for 1 hour using 4% PFA (w/v, in PBS) followed by washing 3 times with PBS. Wells were then permeabilized using 0.2% Triton® X-100 (v/v, PBS) for 10 min or with 0.5% Triton® X-100 (v/v, PBS) for COPI staining. Wells were then washed twice with PBS to halt permeabilization and then non-specific antibody binding blocked by incubation with a blocking solution for 1 hour at RT. Blocking solution contained 1% BSA (w/v, PBS) supplemented with 0.4% Fish Skin Gelatin (v/v, PBS). Primary antibodies were diluted in respective blocking solution (see ‘Antibodies’ for dilutions), blocking solution removed from well and incubated with primary antibody solution for 1 hour at RT. […]
(§1) High content image analysis was carried out using the InCell Investigator 2.7.3 software (GE Healthcare®). […] Quantification for nuclear staining was measured as average pixel intensity (grey scale) for the wavelength of fluorophore across the area of the nuclear mask. Cytoplasmic staining quantification was of either the average pixel intensity or the coefficient of variance of pixel intensities within collar area. […]
The intracellular levels of two SASP components, IL-6 and IL-8 were assessed using stained cells. […]

IMR90 ER:RAS cells [2] = test: Golgi dispersal by TGN46 staining, high throughput microscopy; format: cell-based, human; conditions: 4OHT-induced senescent cells; 7 days after addition of the drugs; FIGS. 10A-B
Method: Immunofluorescence staining was carried out by first fixing wells of 96 well plate at desired timepoint for 1 hour using 4% PFA (w/v, in PBS) followed by washing 3 times with PBS. Wells were then permeabilized using 0.2% Triton® X-100 (v/v, PBS) for 10 min or with 0.5% Triton® X-100 (v/v, PBS) for COPI staining. Wells were then washed twice with PBS to halt permeabilization and then non-specific antibody binding blocked by incubation with a blocking solution for 1 hour at RT. Blocking solution contained 1% BSA (w/v, PBS) supplemented with 0.4% Fish Skin Gelatin (v/v, PBS). Primary antibodies were diluted in respective blocking solution (see ‘Antibodies’ for dilutions), blocking solution removed from well and incubated with primary antibody solution for 1 hour at RT. For BrdU staining primary antibody solution is supplemented with 0.5 U/ul DNase (Sigma) and 1 mM MgCl2 and incubation times reduced to 30 minutes. […]
as §1

SMILES	Intracellular levels of IL-6 and IL-8 (IMR90 ER:RAS cells [1])	Golgi dispersal (TGN46 distribution) (IMR90 ER:RAS cells [2])
Cc1nn(C)c(C)c1CCOc1c(-c2ccc3c(c2)c(CN(C)C)nn3C)ccc(F)c1F [Compound 1, 1-(5-(3,4-difluoro-2-(2-(1,3,5-trimethyl-1H-pyrazol-4-yl)ethoxy)phenyl)-1-methyl-1H-indazol-3-yl)-N,N-dimethylmethanamine]	selectively resulted in an intracellular accumulation of these cytokines on senescent cells	selectively caused Golgi dispersal on senescent cells
Cc1c(NS(=O)(=O)c2c(Cl)cc(-c3ccnc(N4CCNCC4)c3)cc2Cl)c(CC(C)C)nn1C [Compound 2]	selectively resulted in an intracellular accumulation of these cytokines on senescent cells	selectively caused Golgi dispersal on senescent cells
